Data as given in paper PMC6278576, “Analogues of Muraymycin Nucleoside Antibiotics with Epimeric Uridine-Derived Core Structures” (Molecules, 2018).
Like-named read-outs stand apart in the source and are kept apart here.

Assays:
MraY from S. aureus [1] = target: T1, MraY from S. aureus (Staphylococcus aureus, UniProt Q2FZ93); design: method as in PMID 29438582; conditions: reference compound in Table 1; same value as given in b6; read-out: IC50, in vitro inhibitory activity against MraY from S. aureus; cited from earlier work
T1 construct: made in house; host or cells: E. coli Lemo21

MraY from S. aureus [2] = target: T1, MraY from S. aureus; test: Fluorescence-based in vitro MraY inhibition assay (dansylated Park's nucleotide, crude membrane preparation); assay type: biochemical; conditions: for IC50: crude membrane preparation of MraY heterologously overexpressed in E. coli, triplicates, mean ± standard deviation, read-out: IC50, in vitro inhibitory activity against MraY from S. aureus; for fold weaker MraY inhibition than (6′S)-counterpart: (6′R)-derivatives 12 and 13 vs. 10 and 11, respectively
Description: Target compounds 10–17 were tested in vitro for their inhibitory potency towards the bacterial target enzyme MraY. Therefore, a previously reported fluorescence-based assay was employed, using dansylated Park’s nucleotide and MraY from S. aureus (recombinantly overexpressed in E. coli).
The overexpression of MraY was performed as described before. A plasmid containing the mraY gene was transformed into E. coli Lemo21 cells, which were plated on lysogeny broth (LB) agar containing kanamycin (50 μg/mL) and chloramphenicol (30 μg/mL). A single colony was picked to induce an overnight culture (10 mL) of LB media containing kanamycin (50 μg/mL) and chloramphenicol (30 μg/mL), which was incubated at 37 °C and 180 rpm for 16 h. A culture of LB media (500 mL) containing kanamycin (50 μg/mL), chloramphenicol (30 μg/mL), and L-rhamnose (1 mM) was inoculated with the overnight culture (500 μL) and then grown at 37 °C and 180 rpm to OD600 0.6. Subsequently, MraY expression was induced with IPTG (1 mM) and the culture was incubated at 37 °C and 180 rpm for 4 h. Cells were then centrifuged and the pellet was resuspended in buffer A (50 mM Tris-HCl buffer pH 7.5, 1 mM MgCl2, 2 mM β-mercaptoethanol, 15 mL overall). Egg white lysozyme (spatula tip), DNAse I (spatula tip), and cOmplete^TM EDTA-free protease inhibitor cocktail (one tablet) were added. Cells were lysed using sonication and then incubated at 4 °C for 30 min. The lysate was centrifuged and the supernatant was centrifuged again. The resultant pellet was resuspended in buffer A (1.7 mL), flash frozen in liquid nitrogen and stored at −80 °C (aliquots of 20 μL). This MraY-containing crude membrane preparation (overall protein concentration ~20.5 mg/mL as determined by OD280) was diluted with water (final overall protein concentration 1 mg/mL) and then directly used for MraY activity assays without further purification.
The assay was performed as described before. The crude membrane preparation of MraY from S. aureus (1 μL, vide supra) was added to a mixture of undecaprenyl phosphate (50 μM), dansylated Park′s nucleotide (7.5 μM), and the tested compound (at varying concentrations) in buffer (100 mM Tris-HCl buffer pH 7.5, 200 mM KCl, 10 mM MgCl2, 0.1% Triton X-100, 20 μL overall). Fluorescence of the assay mixtures over time was monitored at λex = 355 nm and λem = 520 nm (plate reader, 384-well plate format). MraY activity at a certain inhibitor concentration was determined using linear regression from 0 to 2 min. This measure of activity was plotted against logarithmic inhibitor concentrations and fitted using a sigmoidal fit. This procedure furnished IC50 values with standard deviations.

E. coli = test: Antibacterial activity (MIC) against E. coli; assay type: cell-based; conditions: Escherichia coli, not active
Description: Muraymycin analogues 10–17 were also studied for their antibacterial activities against E. coli, but were not active (MIC > 50 μg/mL).

T1 sequence (Q2FZ93 whole entry): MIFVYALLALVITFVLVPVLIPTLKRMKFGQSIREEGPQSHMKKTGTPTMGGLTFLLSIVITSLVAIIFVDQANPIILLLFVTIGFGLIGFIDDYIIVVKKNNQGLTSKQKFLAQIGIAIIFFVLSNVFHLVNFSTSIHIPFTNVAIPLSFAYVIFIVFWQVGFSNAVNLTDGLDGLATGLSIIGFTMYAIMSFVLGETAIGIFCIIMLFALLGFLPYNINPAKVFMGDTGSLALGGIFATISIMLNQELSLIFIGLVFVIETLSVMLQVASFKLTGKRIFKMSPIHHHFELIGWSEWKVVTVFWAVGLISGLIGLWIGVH

Row | SMILES | IC50 (MraY from S. aureus [1]) [µM] | fold loss in inhibitory potency (MraY) vs. 9 (MraY from S. aureus [2]; compounds 10 vs. 9, epicapreomycidine replaced by L-lysine, nonhydroxylated L-leucine) | IC50 (MraY from S. aureus [2]) [µM] | MIC (E. coli) [µg/mL] | fold weaker MraY inhibition than (6′S)-counterpart (MraY from S. aureus [2]) [fold] | fold more active (MraY) than D-leucine epimer 17 (MraY from S. aureus [2]; 16 vs. 17)
1 | CC(C)[C@H](NC(=O)N[C@H](C(=O)N[C@H](C(=O)NCCCN[C@@H](C[C@H]1O[C@@H](n2ccc(=O)[nH]c2=O)[C@H](O)[C@@H]1O)C(=O)O)[C@@H](O)C(C)C)[C@@H]1CCNC(=N)N1)C(=O)O [Compound 9] | 0.095 ± 0.019 |  |  |  |  | 
2 | CC(C)C[C@H](NC(=O)[C@H](CCCCN)NC(=O)N[C@H](C(=O)O)C(C)C)C(=O)NCCCN[C@@H](C[C@H]1O[C@@H](n2ccc(=O)[nH]c2=O)[C@H](O)[C@@H]1O)C(=O)O [Compound 10, 5′-deoxy-L-Leu muraymycin analogue] |  | ~ 26 fold | 2.5 ± 0.6 | > 50 |  | 
3 | CC(C)C[C@@H](NC(=O)[C@H](CCCCN)NC(=O)N[C@H](C(=O)O)C(C)C)C(=O)NCCCN[C@@H](C[C@H]1O[C@@H](n2ccc(=O)[nH]c2=O)[C@H](O)[C@@H]1O)C(=O)O [Compound 11, 5′-deoxy-D-Leu muraymycin analogue] |  |  | 2 ± 0.6 | > 50 |  | 
4 | CC(C)C[C@H](NC(=O)[C@H](CCCCN)NC(=O)N[C@H](C(=O)O)C(C)C)C(=O)NCCCN[C@H](C[C@H]1O[C@@H](n2ccc(=O)[nH]c2=O)[C@H](O)[C@@H]1O)C(=O)O [Compound 12, 5′-deoxy-6′-epi-L-Leu muraymycin analogue] |  |  | 38 ± 6 | > 50 | 15 | 
5 | CC(C)C[C@@H](NC(=O)[C@H](CCCCN)NC(=O)N[C@H](C(=O)O)C(C)C)C(=O)NCCCN[C@H](C[C@H]1O[C@@H](n2ccc(=O)[nH]c2=O)[C@H](O)[C@@H]1O)C(=O)O [Compound 13, 5′-deoxy-6′-epi-D-Leu muraymycin analogue] |  |  | 24 ± 9 | > 50 | 12 | 
6 | CC(C)C[C@H](NC(=O)[C@H](CCCCN)NC(=O)N[C@H](C(=O)O)C(C)C)C(=O)NCCCN[C@@H](C(=O)O)[C@H](O)[C@H]1O[C@@H](n2ccc(=O)[nH]c2=O)[C@H](O)[C@@H]1O [Compound 14, 6′-epi-L-Leu muraymycin analogue] |  |  | 10 ± 4 | > 50 |  | 
7 | CC(C)C[C@@H](NC(=O)[C@H](CCCCN)NC(=O)N[C@H](C(=O)O)C(C)C)C(=O)NCCCN[C@@H](C(=O)O)[C@H](O)[C@H]1O[C@@H](n2ccc(=O)[nH]c2=O)[C@H](O)[C@@H]1O [Compound 15, 6′-epi-D-Leu muraymycin analogue] |  |  | 10 ± 2 | > 50 |  | 
8 | CC(C)C[C@H](NC(=O)[C@H](CCCCN)NC(=O)N[C@H](C(=O)O)C(C)C)C(=O)NCCCN[C@H](C(=O)O)[C@@H](O)[C@H]1O[C@@H](n2ccc(=O)[nH]c2=O)[C@H](O)[C@@H]1O [Compound 16, 5′-epi-L-Leu muraymycin analogue] |  |  | 6.2 ± 2.8 | > 50 |  | ~ 3 fold
9 | CC(C)C[C@@H](NC(=O)[C@H](CCCCN)NC(=O)N[C@H](C(=O)O)C(C)C)C(=O)NCCCN[C@H](C(=O)O)[C@@H](O)[C@H]1O[C@@H](n2ccc(=O)[nH]c2=O)[C@H](O)[C@@H]1O [Compound 17, 5′-epi-D-Leu muraymycin analogue] |  |  | 21 ± 4 | > 50 |  | 
